From publication PMC6628648, “Enabling microbial syringol conversion through structure-guided protein engineering” (Proceedings of the National Academy of Sciences of the …, 2019) come the findings set out here.

In one assay the target is GcoA-F169A (Amycolatopsis sp., UniProt P0DPQ7, F169A). The assay is described as follows: Substrate dissociation constant by ferric spin-state (UV/vis) titration. The format is binding, Amycolatopsis sp. ATCC 39116. Also on record: GST (N, cleaved yes); made in house; host or cells: E. coli Rosetta 2 (DE3). The protocol: The equilibrium binding constant, KD, for GcoA-F169A and guaiacol, syringol, and 3MC was determined as described previously ([28]) and detailed in SI Appendix. […]
vi = Vmax[S]/(KM + [S]) (4)
Determination of substrate dissociation constants (KD) with F169A. 0-60 µM of guaiacol, syringol, or 3MC in 0.5 or 1 µM aliquots, were titrated into a cuvette containing 3 µM F169A GcoA in 25 mM HEPES, 50 mM NaCl, pH 7.5. The spectrum after each substrate addition was recorded, beginning with no substrate bound. The solution reached equilibrium before the next addition. A difference spectrum was made to illustrate the shift from a low-spin aquo-heme complex to the high-spin substrate-bound complex (spectral […]
shift from 417 nm to 388 nm). […] The absorbance […]
at 388 nm (Abs388-417 nm) was plotted as a function of [substrate], yielding a quadratic curve that was fit to equation (5) to determine […]
Δ Absobs = Δ Absmax2Et(L0 + Et + KD − √(L0 + Et + Kd)2 − 4Et ∗ L0) (5)
Where L0, Et, KD, and ΔAbsmax are the ligand concentrations, total protein (subunit) concentration, the equilibrium dissociation constant, and the maximum Abs388-417 nm, respectively. Reported values are the average of 2 or more measurements.
Formaldehyde determination. A colorimetric assay using tryptophan can be used to quantify the amount of formaldehyde produced in F169 GcoA/B reactions with guaiacol, syringol, or 3MC. 0.2 µM each of F169 GcoA mutants and GcoB were dissolved in air-saturated buffer (25 mM HEPES, 50 mM NaCl) in a cuvette at pH 7.5, 25 °C. 100 µg/mL catalase was added to each reaction to capture any H2O2 formed during the uncoupled reaction. 200 μM NADH was added and the background rate recorded. 100 (guaiacol, syringol, or 3MC) or 200 (syringol) μM of substrate was then added and the reaction monitored until there was no more change, due to either substrate, NADH or O2 depletion, whichever occurred first. […] After cooling, the absorbance was read at 575 nm and the [formaldehyde] calculated by using ε575 nm = 4.2 mM-1 cm-1, obtained with formaldehyde as a standard (1). […]

The next assay has as its target T1, GcoA variant F169I (Amycolatopsis sp., UniProt P0DPQ7, F169I).
T1 construct: GST (N, cleaved yes); made in house; host or cells: E. coli Rosetta 2 (DE3)
Briefly: NADH consumption assay (specific activity) with GcoB. The format is biochemical, Amycolatopsis sp. ATCC 39116. The following applies: saturating (200 µM) substrate, pH 7.5, 25°C.

Read-outs that look alike come from different tables or passages of the source.

One may read the Kd as the free concentration of one partner at which half of the binding sites on the other are occupied at equilibrium, for simple one-to-one binding.

GcoA-F169A, sequence (P0DPQ7 whole entry F169A): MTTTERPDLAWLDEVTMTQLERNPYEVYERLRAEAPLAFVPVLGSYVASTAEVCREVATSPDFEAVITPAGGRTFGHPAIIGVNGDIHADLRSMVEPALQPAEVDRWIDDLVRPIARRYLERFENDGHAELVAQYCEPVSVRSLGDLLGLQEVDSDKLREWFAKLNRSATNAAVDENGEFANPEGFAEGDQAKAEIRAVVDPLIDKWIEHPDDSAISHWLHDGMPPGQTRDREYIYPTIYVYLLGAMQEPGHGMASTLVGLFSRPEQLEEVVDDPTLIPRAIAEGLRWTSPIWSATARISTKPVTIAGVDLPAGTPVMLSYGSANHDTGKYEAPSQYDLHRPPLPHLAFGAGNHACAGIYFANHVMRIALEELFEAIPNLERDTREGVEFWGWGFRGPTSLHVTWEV
T1 sequence (P0DPQ7 whole entry F169I): as the sequence (P0DPQ7 whole entry F169A) above, with A169I counted along it

Consider `COc1cccc(O)c1O` [3MC, 3-methoxycatechol], for which the Kd on GcoA-F169A (GcoA-F169A, air-saturated 25 mM Hepes, 50 mM NaCl, pH 7.5, 25 °C, low-spin (417 nm) to high-spin (388 nm) change) turned out to be 9.5 ± 0.2 µM. At GcoA variant F169I, the Specific activity was found to be 1.1 ± 0.7 μmol sec-1 μmol-1 GcoA.

As for `COc1ccccc1O` [guaiacol, 2-methoxyphenol], at GcoA-F169A, the Kd was 7.1 ± 0.1 µM. Also, the Specific activity at GcoA variant F169I stood at 1.4 ± 0.2 μmol sec-1 μmol-1 GcoA.

`COc1cccc(OC)c1O` [syringol, 2,6-dimethoxyphenol]: on GcoA-F169A, binding was characterised by a dissociation constant (Kd) of 1.7 ± 0.07 µM. On GcoA variant F169I, this compound registered a Specific activity of 0.56 ± 0.2 μmol sec-1 μmol-1 GcoA.
